# From ChEMBL document CHEMBL1201862, “PubChem BioAssay data set” (2004)
# Activity calls are given as the source filed them.
# Tests used:
# Cytochrome P450 2D6 = Cytochrome P450 2D6 (Homo sapiens, UniProt P10635);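 note: CYP2D6 member of a cytochrome P450 panel assay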
# Cytochrome P450 2C9 = Cytochrome P450 2C9 (Homo sapiens, UniProt P11712)
# [1] = NIH-3T3 fibroblast cytotoxicity, dose response, cytotoxicity control, cell-based, fluorescence, Alamar Blue, secondary assay (AID 2327); type: functional;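 note: NIH-3T3 mouse fibroblasts cultured with fluconazole at 8 µg/mL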
# Large T antigen = Large T antigen (Simian virus 40, UniProt P03070); type: functional, Betapolyomavirus macacae;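 note: Confirmatory-stage PubChem screen for compounds that inhibit SV40 T antigen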
# Cytochrome P450 2C19 = Cytochrome P450 2C19 (Homo sapiens, UniProt P33261); assay: Cytochrome panel assay with activity outcomes. Panel member name: p450-cyp2c19 Compounds with AC50 equal or less than 10 uM are considered active; type: functional; conditions: read-out: AC50
# [2] = molecular target: T1, Replicative DNA helicase DnaB (Mycobacterium tuberculosis, UniProt P9WMR3); assay: DnaB intein splicing inhibitors, dose response, biochemical, cell-free fluorescence (AID 449749); type: functional
# T1 sequence (P9WMR3 whole entry): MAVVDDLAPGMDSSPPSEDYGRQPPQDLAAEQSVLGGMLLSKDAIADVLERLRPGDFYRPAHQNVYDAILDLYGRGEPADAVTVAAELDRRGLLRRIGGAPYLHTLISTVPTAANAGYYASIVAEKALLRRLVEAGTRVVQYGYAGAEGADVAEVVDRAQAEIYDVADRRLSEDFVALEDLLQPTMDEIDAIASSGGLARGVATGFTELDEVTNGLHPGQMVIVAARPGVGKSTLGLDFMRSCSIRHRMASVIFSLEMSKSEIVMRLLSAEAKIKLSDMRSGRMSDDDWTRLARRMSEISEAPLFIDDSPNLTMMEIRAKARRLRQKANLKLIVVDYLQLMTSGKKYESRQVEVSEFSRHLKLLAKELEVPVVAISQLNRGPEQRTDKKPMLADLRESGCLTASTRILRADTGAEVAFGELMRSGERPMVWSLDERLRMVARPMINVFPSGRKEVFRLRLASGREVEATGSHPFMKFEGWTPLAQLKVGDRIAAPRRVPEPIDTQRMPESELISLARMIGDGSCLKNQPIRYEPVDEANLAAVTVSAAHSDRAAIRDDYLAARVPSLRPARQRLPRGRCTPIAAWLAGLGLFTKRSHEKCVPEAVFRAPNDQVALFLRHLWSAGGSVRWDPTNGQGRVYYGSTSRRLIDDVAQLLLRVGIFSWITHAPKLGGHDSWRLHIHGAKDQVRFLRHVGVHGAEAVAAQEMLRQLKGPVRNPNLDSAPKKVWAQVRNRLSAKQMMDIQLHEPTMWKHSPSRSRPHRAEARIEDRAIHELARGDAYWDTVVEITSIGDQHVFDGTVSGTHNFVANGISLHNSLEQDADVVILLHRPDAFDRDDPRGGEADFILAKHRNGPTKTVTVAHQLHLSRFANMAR
# Protein RecA = molecular target: T2, Protein RecA (Mycobacterium tuberculosis, UniProt P9WHJ3); assay: Fluorescence Cell-Free Homogeneous Dose Retest to Identify Inhibitors of RecA-Intein Splicing Activity. [Related pubchem assays (depositor defined):AID2097, AID2223, AID489010, AID492950]; type: functional
# T2 sequence (P9WHJ3 whole entry): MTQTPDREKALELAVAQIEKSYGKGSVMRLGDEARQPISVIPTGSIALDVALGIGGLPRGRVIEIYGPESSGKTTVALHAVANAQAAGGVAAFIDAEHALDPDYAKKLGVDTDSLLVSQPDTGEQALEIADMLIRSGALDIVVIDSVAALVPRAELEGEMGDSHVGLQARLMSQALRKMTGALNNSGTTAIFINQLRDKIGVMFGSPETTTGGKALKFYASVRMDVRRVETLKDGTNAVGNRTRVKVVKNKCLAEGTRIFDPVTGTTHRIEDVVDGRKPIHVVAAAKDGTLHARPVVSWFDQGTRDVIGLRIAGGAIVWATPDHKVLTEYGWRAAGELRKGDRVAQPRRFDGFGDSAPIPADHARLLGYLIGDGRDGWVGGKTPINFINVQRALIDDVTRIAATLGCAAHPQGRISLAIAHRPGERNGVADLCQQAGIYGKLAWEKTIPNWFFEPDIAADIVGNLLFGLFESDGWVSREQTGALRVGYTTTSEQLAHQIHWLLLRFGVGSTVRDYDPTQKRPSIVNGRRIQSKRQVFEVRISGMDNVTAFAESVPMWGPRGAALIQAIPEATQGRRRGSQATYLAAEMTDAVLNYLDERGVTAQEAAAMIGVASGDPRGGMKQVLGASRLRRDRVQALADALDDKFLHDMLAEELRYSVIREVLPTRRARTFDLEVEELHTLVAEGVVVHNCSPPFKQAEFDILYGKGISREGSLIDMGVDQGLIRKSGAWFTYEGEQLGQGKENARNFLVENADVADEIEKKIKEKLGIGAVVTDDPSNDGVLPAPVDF
# Cytochrome P450 3A4 = Cytochrome P450 3A4 (Homo sapiens, UniProt P08684);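 note: CYP3A4 tested as one member of a cytochrome P450 panel screen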
# [3] = molecular target: T3, Calpain-2 catalytic subunit (Sus scrofa, UniProt P43367); assay: m-calpain protease blockers, concentration series – biochemical, fluorogenic peptide substrate, dose response (AID 1420); type: functional
# T3 sequence (P43367 whole entry): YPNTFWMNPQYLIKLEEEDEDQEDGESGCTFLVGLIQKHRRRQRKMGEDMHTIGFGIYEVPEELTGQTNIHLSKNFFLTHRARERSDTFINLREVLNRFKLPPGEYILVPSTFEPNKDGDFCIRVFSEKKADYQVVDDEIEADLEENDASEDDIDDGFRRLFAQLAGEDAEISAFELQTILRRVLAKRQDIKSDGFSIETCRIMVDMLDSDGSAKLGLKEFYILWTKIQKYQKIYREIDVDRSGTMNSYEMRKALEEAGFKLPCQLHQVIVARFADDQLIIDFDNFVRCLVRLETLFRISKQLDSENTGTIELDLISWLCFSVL
# Cytochrome P450 1A2 = molecular target: T4, Cytochrome P450 1A2 (Homo sapiens, UniProt P05177);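 note: PubChem cytochrome P450 panel assay, CYP1A2 panel member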
# T4 sequence (P05177 whole entry): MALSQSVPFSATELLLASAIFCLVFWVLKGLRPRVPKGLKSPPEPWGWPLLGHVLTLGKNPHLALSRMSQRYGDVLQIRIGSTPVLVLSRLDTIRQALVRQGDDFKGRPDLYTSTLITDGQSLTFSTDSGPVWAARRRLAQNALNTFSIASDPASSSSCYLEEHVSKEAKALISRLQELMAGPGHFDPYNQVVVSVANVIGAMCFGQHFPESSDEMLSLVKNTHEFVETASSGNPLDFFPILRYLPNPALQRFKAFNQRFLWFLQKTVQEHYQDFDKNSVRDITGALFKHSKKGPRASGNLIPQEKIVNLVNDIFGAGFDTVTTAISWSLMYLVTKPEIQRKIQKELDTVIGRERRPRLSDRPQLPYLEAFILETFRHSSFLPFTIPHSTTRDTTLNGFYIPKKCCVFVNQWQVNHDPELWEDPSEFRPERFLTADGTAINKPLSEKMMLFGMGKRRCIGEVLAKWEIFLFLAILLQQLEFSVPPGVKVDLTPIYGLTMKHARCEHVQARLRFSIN
# [4] = molecular target: T5, Rac GTPase-activating protein 1 (Homo sapiens, UniProt Q9H0H5); assay: blockers of MgcRacGAP-driven Rac1 GTP hydrolysis – biochemical, ADP Hunter fluorescence, primary and confirmatory, confirmation (AID 624330); type: functional
# T5 sequence (Q9H0H5 whole entry): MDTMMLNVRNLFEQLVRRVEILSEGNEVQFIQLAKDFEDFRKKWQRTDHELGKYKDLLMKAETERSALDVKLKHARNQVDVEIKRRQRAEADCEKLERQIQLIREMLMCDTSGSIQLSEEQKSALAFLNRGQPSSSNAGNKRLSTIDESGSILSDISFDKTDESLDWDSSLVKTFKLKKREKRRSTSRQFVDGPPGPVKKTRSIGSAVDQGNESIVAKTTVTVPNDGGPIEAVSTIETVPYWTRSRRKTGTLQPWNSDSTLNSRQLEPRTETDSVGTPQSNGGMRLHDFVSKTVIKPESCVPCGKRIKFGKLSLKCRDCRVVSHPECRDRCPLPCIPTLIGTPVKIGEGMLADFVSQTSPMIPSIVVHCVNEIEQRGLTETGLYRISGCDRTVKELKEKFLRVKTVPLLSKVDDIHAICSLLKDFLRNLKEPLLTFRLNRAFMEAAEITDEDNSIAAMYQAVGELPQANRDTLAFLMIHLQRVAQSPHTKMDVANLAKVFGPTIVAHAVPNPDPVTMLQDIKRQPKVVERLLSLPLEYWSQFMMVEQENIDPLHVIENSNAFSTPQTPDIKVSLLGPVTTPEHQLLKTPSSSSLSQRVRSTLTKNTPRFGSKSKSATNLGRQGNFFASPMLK
# [5] = tested on: Streptococcus sp. 'group A'; assay: Streptococcus pyogenes SK(-)GAS viability under kanamycin – luminescence, BacTiterGlo, confirmation, counter-screen for streptokinase expression inhibitor project, dose response (AID 1900); type: functional, organism-based
# Streptococcus = assay: GAS UMAA2166 growth inhibition – luminescence, BacTiterGlo, counter-screen for streptokinase expression inhibitor project, dose response (AID 1915); type: functional, organism-based;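 note: potency for reduction of bacterial viability or growth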
# cells = type: functional
# [6] = molecular target: Luciferin 4-monooxygenase (Photinus pyralis, UniProt P08659); assay: inhibition of purified Photinus pyralis luciferase – biochemical, luminescence, dose response (AID 1891)
# [7] = Luminescence Cell-Based Dose Confirmation HTS to Identify Inhibitors of Platelet Dense Granule Release. [Related pubchem assays: 1663 (Primary HTS), 1678 (Summary of Project)]; type: functional
# Large T antigen, sequence (P03070 whole entry): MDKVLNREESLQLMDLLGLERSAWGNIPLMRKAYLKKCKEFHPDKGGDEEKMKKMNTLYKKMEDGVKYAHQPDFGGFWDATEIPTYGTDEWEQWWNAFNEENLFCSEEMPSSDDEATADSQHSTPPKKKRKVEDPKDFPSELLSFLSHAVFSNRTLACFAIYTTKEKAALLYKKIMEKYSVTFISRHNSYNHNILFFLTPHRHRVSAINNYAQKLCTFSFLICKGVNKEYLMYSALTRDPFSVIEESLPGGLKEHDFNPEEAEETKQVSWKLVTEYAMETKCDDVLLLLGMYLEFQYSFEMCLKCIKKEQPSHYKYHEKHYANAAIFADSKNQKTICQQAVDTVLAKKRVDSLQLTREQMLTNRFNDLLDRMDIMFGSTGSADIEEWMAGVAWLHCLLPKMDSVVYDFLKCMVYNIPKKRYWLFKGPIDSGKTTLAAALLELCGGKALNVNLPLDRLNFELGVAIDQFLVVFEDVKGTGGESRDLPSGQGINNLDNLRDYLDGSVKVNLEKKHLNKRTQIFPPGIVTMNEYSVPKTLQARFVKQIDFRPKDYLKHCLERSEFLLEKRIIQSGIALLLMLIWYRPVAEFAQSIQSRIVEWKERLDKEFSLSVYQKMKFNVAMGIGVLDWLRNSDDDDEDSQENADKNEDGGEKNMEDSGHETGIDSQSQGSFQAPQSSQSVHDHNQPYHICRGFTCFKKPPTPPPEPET
# Cytochrome P450 2D6, sequence (P10635 whole entry): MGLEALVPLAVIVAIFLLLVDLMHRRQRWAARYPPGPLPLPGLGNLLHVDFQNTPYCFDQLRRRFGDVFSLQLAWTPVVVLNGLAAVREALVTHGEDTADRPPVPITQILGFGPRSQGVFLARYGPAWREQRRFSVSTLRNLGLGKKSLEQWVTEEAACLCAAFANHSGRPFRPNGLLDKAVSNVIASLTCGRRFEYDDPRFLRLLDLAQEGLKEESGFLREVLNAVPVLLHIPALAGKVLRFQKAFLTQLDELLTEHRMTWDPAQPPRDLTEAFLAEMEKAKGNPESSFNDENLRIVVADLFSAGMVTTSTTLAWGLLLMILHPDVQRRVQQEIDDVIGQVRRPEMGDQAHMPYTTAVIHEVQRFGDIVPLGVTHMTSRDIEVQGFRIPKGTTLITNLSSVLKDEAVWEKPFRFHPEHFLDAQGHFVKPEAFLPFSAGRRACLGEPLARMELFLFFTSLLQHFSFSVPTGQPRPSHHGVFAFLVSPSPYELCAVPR
# Cytochrome P450 2C19, sequence (P33261 whole entry): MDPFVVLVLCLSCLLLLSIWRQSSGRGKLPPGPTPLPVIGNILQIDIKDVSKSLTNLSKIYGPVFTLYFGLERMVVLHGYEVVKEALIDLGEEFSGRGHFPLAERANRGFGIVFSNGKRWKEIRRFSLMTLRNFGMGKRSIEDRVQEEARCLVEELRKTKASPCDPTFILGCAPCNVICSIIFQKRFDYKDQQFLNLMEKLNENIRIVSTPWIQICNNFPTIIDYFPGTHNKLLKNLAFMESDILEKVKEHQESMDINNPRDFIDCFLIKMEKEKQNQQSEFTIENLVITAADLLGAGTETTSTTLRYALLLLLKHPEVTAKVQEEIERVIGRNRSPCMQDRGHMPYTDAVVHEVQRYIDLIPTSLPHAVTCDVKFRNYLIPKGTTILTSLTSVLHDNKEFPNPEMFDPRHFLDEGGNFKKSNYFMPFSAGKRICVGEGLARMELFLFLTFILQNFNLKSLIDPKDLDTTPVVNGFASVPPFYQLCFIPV
# Cytochrome P450 2C9, sequence (P11712 whole entry): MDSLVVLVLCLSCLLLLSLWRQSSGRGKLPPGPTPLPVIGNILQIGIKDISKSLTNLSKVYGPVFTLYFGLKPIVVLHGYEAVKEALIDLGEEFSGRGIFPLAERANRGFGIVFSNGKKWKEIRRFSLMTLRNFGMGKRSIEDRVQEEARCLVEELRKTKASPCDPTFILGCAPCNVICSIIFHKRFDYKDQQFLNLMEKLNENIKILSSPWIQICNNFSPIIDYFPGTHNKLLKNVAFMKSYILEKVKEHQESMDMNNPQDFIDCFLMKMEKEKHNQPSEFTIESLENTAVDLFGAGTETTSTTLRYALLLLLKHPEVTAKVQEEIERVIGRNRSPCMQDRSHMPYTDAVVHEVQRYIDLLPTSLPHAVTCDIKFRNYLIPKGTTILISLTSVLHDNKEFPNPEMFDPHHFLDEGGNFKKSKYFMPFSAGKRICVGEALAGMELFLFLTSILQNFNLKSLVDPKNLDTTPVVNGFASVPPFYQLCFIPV
# Cytochrome P450 3A4, sequence (P08684 whole entry): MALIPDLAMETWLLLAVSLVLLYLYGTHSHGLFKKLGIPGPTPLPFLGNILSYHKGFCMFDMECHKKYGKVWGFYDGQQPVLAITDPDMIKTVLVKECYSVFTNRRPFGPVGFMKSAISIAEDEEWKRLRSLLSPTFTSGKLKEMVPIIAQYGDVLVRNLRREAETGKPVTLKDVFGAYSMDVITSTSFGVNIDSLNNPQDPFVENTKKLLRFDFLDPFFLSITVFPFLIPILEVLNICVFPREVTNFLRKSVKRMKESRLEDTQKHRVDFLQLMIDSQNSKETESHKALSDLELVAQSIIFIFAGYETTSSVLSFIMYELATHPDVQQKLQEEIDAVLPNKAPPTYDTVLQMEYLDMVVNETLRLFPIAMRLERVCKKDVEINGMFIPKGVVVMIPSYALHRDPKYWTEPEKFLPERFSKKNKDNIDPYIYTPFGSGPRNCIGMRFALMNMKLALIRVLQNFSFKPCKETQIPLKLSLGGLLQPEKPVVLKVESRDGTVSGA
# Luciferin 4-monooxygenase, sequence (P08659 whole entry): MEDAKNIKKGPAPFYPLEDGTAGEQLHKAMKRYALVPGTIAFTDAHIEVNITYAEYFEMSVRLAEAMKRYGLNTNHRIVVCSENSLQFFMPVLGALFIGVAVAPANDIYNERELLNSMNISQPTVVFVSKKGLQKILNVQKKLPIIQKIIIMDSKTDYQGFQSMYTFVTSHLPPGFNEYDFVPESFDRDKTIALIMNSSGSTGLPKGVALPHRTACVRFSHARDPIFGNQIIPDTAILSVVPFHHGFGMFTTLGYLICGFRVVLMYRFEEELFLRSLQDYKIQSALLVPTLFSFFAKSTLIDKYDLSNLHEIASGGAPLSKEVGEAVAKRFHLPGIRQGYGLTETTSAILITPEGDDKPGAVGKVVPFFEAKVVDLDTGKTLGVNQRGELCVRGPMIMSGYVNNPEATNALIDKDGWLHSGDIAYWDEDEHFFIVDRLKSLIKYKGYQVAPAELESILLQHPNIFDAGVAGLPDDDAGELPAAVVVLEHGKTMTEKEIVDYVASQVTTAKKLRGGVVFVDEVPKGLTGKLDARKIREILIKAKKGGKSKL
smiles,measurement,setting,value
O=C(Nc1ccc2nc(-c3ccc(Br)o3)[nH]c2c1)c1ccco1,AC50,Cytochrome P450 2D6,1 µM (inconclusive)
same,AC50,Cytochrome P450 2C9,11.2 µM (inconclusive)
CSc1nn2c(C(F)(F)F)cc(C(F)(F)F)nc2c1C(=O)O,EC50,[1],> 160 µM (inactive)
Oc1ccc2[nH]ccc2c1,IC50,Large T antigen,80.2 µM (active)
COc1ccccc1-c1nc(NCc2cnc(C)cn2)c2ccccc2n1,AC50,Cytochrome P450 2C19,39.8 µM (inconclusive)
same,AC50,Cytochrome P450 2D6,31.6 µM (inconclusive)
CC1CCCN(C2=C(Cl)C(=O)N(c3cccc(Cl)c3)C2=O)C1 (stereo not drawn),AC50,[2],> 380 µM (inactive)
same,EC50,Protein RecA,2.86 µM (active)
Fc1cccc(/C=N\N=C/c2cccc(F)c2)c1,AC50,Cytochrome P450 2D6,25.1 µM (inconclusive)
same,AC50,Cytochrome P450 3A4,31.6 µM (inconclusive)
CCCCOc1cccc(C(=O)NN=C(S)NC2CCCCC2)c1,EC50,[1],37.1 µM (active)
COc1ccc(N2CCN(C(c3ccccc3)c3nnnn3Cc3ccc(F)cc3)CC2)cc1 (stereo not drawn),IC50,[3],5 µM (not active)
COCCn1c(=O)c(-c2cccc(C#N)c2)nc2cnc(N(C)C)nc21,AC50,Cytochrome P450 2D6,0.1 µM (inconclusive)
same,AC50,Cytochrome P450 1A2,2 µM (inconclusive)
C/N=c1\scc(C)n1/N=C/c1ccc(O)cc1O,IC50,Large T antigen,4.27 µM (active)
same,IC50,[4],10.5 µM (active)
O=C(O)[C@@H]1Cc2c([nH]c3ccccc23)[C@@H](CCCCO)N1,AC50,Cytochrome P450 2D6,3.98 µM (inconclusive)
COc1ccc(CNc2ccc3c[nH]nc3c2)c(OC)c1OC,AC50,[2],2.69 µM (active)
same,EC50,Protein RecA,0.797 µM (active)
COC(=O)c1[nH]c2ccccc2c1/C=C1\C(=O)NC(=O)N(c2ccc(OC)cc2)C1=O,IC50,Large T antigen,89 µM (active)
COCC(=O)N1CCC[C@@]2(CCN(c3ncccn3)C2)C1,AC50,Cytochrome P450 2D6,15.8 µM (inconclusive)
Cc1cccc(NC(S)=NCc2cccs2)c1,IC50,[3],> 50 µM (not active)
CCCCCCNC(=O)N[C@H](C(=O)NCCC[C@H]1CN2C(=NC[C@H]2C)N1CCC(c1ccccc1)c1ccccc1)C(C)O (stereo partly drawn),IC50,Large T antigen,> 100 µM (active)
O=C1CC/[N+](=C\c2ccc(Cl)c(Cl)c2)[N-]1,AC50,[2],17.8 µM (active)
same,EC50,Protein RecA,8.98 µM (active)
CCCc1nc2ccccc2c(C(=O)OCC(=O)Nc2cccc(S(=O)(=O)N3CCOCC3)c2)c1CC,AC50,Cytochrome P450 2D6,17.8 µM (inconclusive)
same,AC50,Cytochrome P450 1A2,10 µM (inconclusive)
O=C(Nc1ccc(F)cc1)c1cc(S(=O)(=O)N2CCCCC2)cs1,AC50,Cytochrome P450 2D6,25.1 µM (inconclusive)
Cn1c(C(=O)NCC2CCCO2)cc2c(=O)n3ccccc3nc21 (stereo not drawn),AC50,Cytochrome P450 2C19,17.8 µM (inconclusive)
same,AC50,Cytochrome P450 2D6,3.55 µM (inconclusive)
same,AC50,Cytochrome P450 2C9,25.1 µM (inconclusive)
CCOc1ccc(NC(=O)NNC(=O)c2cc3ccccc3cc2O)cc1,EC50,[1],> 150 µM (inactive)
C=COC(=O)CSc1snc(SCC(=O)OC)c1C#N,AC50,[2],> 380 µM (inactive)
same,EC50,Protein RecA,40.1 µM (active)
Cc1ccc(N(CCC#N)C(=O)CSc2ccc3c(c2)OCCO3)cc1,AC50,Cytochrome P450 2D6,25.1 µM (inconclusive)
O=C(Nc1nnc(C2=COCCO2)o1)c1cccc(C(F)(F)F)c1,EC50,[5],2.96 µM (active)
same,EC50,Streptococcus,7.55 µM (active)
same,IC50,cells,4.89 µM (active)
COc1cc2c(cc1OC)-c1cc(Nc3ccc(N(C)C)cc3)nc(=O)n1CC2,IC50,Large T antigen,2.74 µM (active)
same,EC50,[6],> 112 µM (not active)
same,EC50,[7],4.83 µM (active)
O=C(CSc1nc2ccccc2s1)Nc1nccs1,AC50,Cytochrome P450 2D6,0.316 µM (inconclusive)
CCOC(=O)COc1ccc2c(c1)c(C(=O)OCC)c(C)n2CC,IC50,cells,5.46 µM (active)
